# Assay results from patent publication US4259235A, “Tricyclic nitrogenous compounds having string plant growth regulating properties” (BASF Aktiengesellschaft, priority 1977, dated 1981).
# Tests used:
# spring barley [1] = test: Growth height of spring barley, soil treatment, Example 10; type: in vivo, spring barley ("Union" variety)
# Procedure: (§1) Spring wheat ("Opal" variety) and spring barley ("Union" variety) were grown under greenhouse conditions in plastic dishes 11.5 cm in diameter, in a peat substrate provided with sufficient nutrients. For the soil (preemergence) treatment, the active ingredients were poured, at two application rates, as aqueous formulations onto the surface of the substrate after sowing.
# (§2) The plant height was measured at the end of the experiment. The figures obtained show the shortening effect of the active ingredients under investigation. The prior art compound β-chloroethylphosphonic acid (Ethephon, German Printed Application DAS No. 1,667,968) was used for comparison purposes.
# spring barley [2] = test: Growth height of spring barley, leaf treatment, Example 10; type: in vivo, spring barley ("Union" variety)
# Procedure: as §1
# Leaf treatment was effected by spraying the plants at a growth height of 10 cm with aqueous formulations of the active ingredients at two application rates.
# as §2
# grass = test: Growth height of, and amount of mowings in, grass, Example 12; type: in vivo; conditions: for First mowing, growth height, relative / First mowing, mowings, relative / Second mowing, growth height, relative / Second mowing, mowings, relative: control = 100
# From the text: In an experiment in large vessels, lawn seed of the following standard composition was sown in a loamy soil: Agrostis tenuis (10%), Cynosurus cristatus (10%), Festuca rubra (15%), Lolium perenne (35%) and Poa pratensis (30%). 1.5 g of N as ammonium nitrate and 1 g of P2 O5 as secondary potassium phosphate were applied as fertilizer. After the grass had been cut twice, the active ingredients were sprayed in conventional manner at various application rates onto the grass which was 4 cm high. The growth height and the mowings were determined 19 days after the treatment. Compared with the control, the treated plants reacted with most considerable height reductions and a proportionate decrease in mowings.
structure (smiles),measurement,setting,value
Brc1ccc(C2=NOC3C4CC(C5N=NC45)C23)cc1 (centres unmarked) [drawing 405],Plant height,spring barley [1]; 3 kg/ha,28.0 cm
same,"Plant height, % of untreated control",spring barley [1]; 3 kg/ha,81.6%
same,Plant height,spring barley [1]; 12 kg/ha,26.0 cm
same,"Plant height, % of untreated control",spring barley [1]; 12 kg/ha,75.8%
O=[N+]([O-])c1ccc(C2=NOC3C4CC(C5N=NC45)C23)cc1 (centres unmarked) [drawing 406],Plant height,spring barley [1]; 3 kg/ha,27.0 cm
same,"Plant height, % of untreated control",spring barley [1]; 3 kg/ha,78.8%
same,Plant height,spring barley [1]; 12 kg/ha,24.0 cm
same,"Plant height, % of untreated control",spring barley [1]; 12 kg/ha,70.0%
Cc1ccc(C2=NOC3C4CC(C5N=NC45)C23)cc1 (centres unmarked) [drawing 407],Plant height,spring barley [1]; 3 kg/ha,25.0 cm
same,"Plant height, % of untreated control",spring barley [1]; 3 kg/ha,72.9%
same,Plant height,spring barley [1]; 12 kg/ha,21.0 cm
same,"Plant height, % of untreated control",spring barley [1]; 12 kg/ha,61.2%
COc1ccc(C2=NOC3C4CC(C5N=NC45)C23)cc1 (centres unmarked) [drawing 408],Plant height,spring barley [1]; 3 kg/ha,30.0 cm
same,"Plant height, % of untreated control",spring barley [1]; 3 kg/ha,87.5%
same,Plant height,spring barley [1]; 12 kg/ha,29.0 cm
same,"Plant height, % of untreated control",spring barley [1]; 12 kg/ha,84.5%
Clc1ccc(C2=NOC3C4CC(C5N=NC45)C23)cc1 (centres unmarked) [drawing 409],Plant height,spring barley [1]; 3 kg/ha,26.0 cm
same,"Plant height, % of untreated control",spring barley [1]; 3 kg/ha,75.8%
same,Plant height,spring barley [1]; 12 kg/ha,24.0 cm
same,"Plant height, % of untreated control",spring barley [1]; 12 kg/ha,70.0%
Clc1ccc(C2N=NC3C4CC(C5N=NC45)C23)cc1 (centres unmarked) [drawing 410],Plant height,spring barley [2]; 1.5 kg/ha,22.0 cm
same,"Plant height, % of untreated control",spring barley [2]; 1.5 kg/ha,78.6%
same,Plant height,spring barley [2]; 6.0 kg/ha,19.5 cm
same,"Plant height, % of untreated control",spring barley [2]; 6.0 kg/ha,69.6%
Brc1ccc(C2=NOC3C4CC(C5N=NC45)C23)cc1 (centres unmarked) [drawing 411],Plant height,spring barley [2]; 1.5 kg/ha,25.5 cm
same,"Plant height, % of untreated control",spring barley [2]; 1.5 kg/ha,91.1%
same,Plant height,spring barley [2]; 6.0 kg/ha,25.0 cm
same,"Plant height, % of untreated control",spring barley [2]; 6.0 kg/ha,89.3%
O=[N+]([O-])c1ccc(C2=NOC3C4CC(C5N=NC45)C23)cc1 (centres unmarked) [drawing 412],Plant height,spring barley [2]; 1.5 kg/ha,25.0 cm
same,"Plant height, % of untreated control",spring barley [2]; 1.5 kg/ha,89.3%
same,Plant height,spring barley [2]; 6.0 kg/ha,24.5 cm
same,"Plant height, % of untreated control",spring barley [2]; 6.0 kg/ha,87.5%
Cc1ccc(C2=NOC3C4CC(C5N=NC45)C23)cc1 (centres unmarked) [drawing 413],Plant height,spring barley [2]; 1.5 kg/ha,25.5 cm
same,"Plant height, % of untreated control",spring barley [2]; 1.5 kg/ha,91.1%
same,Plant height,spring barley [2]; 6.0 kg/ha,25.0 cm
same,"Plant height, % of untreated control",spring barley [2]; 6.0 kg/ha,89.3%
Clc1ccc(C2=NOC3C4CC(C5N=NC45)C23)cc1 (centres unmarked) [drawing 414],Plant height,spring barley [2]; 1.5 kg/ha,26.0 cm
same,"Plant height, % of untreated control",spring barley [2]; 1.5 kg/ha,92.9%
same,Plant height,spring barley [2]; 6.0 kg/ha,24.5 cm
same,"Plant height, % of untreated control",spring barley [2]; 6.0 kg/ha,87.5%
FC(F)(F)c1cccc(NC2C(I)C3CC2C2N=NC32)c1 (centres unmarked) [drawing 415],Plant height,spring barley [2]; 1.5 kg/ha,25.0 cm
same,"Plant height, % of untreated control",spring barley [2]; 1.5 kg/ha,89.3%
same,Plant height,spring barley [2]; 6.0 kg/ha,24.0 cm
same,"Plant height, % of untreated control",spring barley [2]; 6.0 kg/ha,85.7%
c1ccc(C2=NOC3C4CC(C5N=NC45)C23)cc1 (centres unmarked) [drawing 424],"First mowing, growth height",grass; 3.0 kg/ha,20.0 cm
same,"First mowing, mowings",grass; 3.0 kg/ha,116.3 g
same,"Second mowing, growth height",grass; 3.0 kg/ha,19.0 cm
same,"Second mowing, mowings",grass; 3.0 kg/ha,94.8 g
same,"First mowing, growth height, relative",grass; 3.0 kg/ha,91.7
same,"First mowing, mowings, relative",grass; 3.0 kg/ha,86.7
same,"Second mowing, growth height, relative",grass; 3.0 kg/ha,95.0
same,"Second mowing, mowings, relative",grass; 3.0 kg/ha,104.6
same,"First mowing, growth height",grass; 6.0 kg/ha,17.0 cm
same,"First mowing, mowings",grass; 6.0 kg/ha,101.1 g
same,"Second mowing, growth height",grass; 6.0 kg/ha,16.5 cm
same,"Second mowing, mowings",grass; 6.0 kg/ha,85.2 g
same,"First mowing, growth height, relative",grass; 6.0 kg/ha,78.0
same,"First mowing, mowings, relative",grass; 6.0 kg/ha,75.3
same,"Second mowing, growth height, relative",grass; 6.0 kg/ha,82.5
same,"Second mowing, mowings, relative",grass; 6.0 kg/ha,94.0
Clc1ccc(C2N=NC3C4CC(C5N=NC45)C23)cc1 (centres unmarked) [drawing 425],"First mowing, growth height",grass; 3.0 kg/ha,20.0 cm
same,"First mowing, mowings",grass; 3.0 kg/ha,125.1 g
same,"Second mowing, growth height",grass; 3.0 kg/ha,19.0 cm
same,"Second mowing, mowings",grass; 3.0 kg/ha,89.9 g
same,"First mowing, growth height, relative",grass; 3.0 kg/ha,91.7
same,"First mowing, mowings, relative",grass; 3.0 kg/ha,93.2
same,"Second mowing, growth height, relative",grass; 3.0 kg/ha,95.0
same,"Second mowing, mowings, relative",grass; 3.0 kg/ha,99.2
same,"First mowing, growth height",grass; 6.0 kg/ha,18.0 cm
same,"First mowing, mowings",grass; 6.0 kg/ha,119.0 g
same,"Second mowing, growth height",grass; 6.0 kg/ha,19.0 cm
same,"Second mowing, mowings",grass; 6.0 kg/ha,92.2 g
same,"First mowing, growth height, relative",grass; 6.0 kg/ha,82.6
same,"First mowing, mowings, relative",grass; 6.0 kg/ha,88.7
same,"Second mowing, growth height, relative",grass; 6.0 kg/ha,95.0
same,"Second mowing, mowings, relative",grass; 6.0 kg/ha,101.8
Clc1ccc(C2=NOC3C4CC(C5N=NC45)C23)cc1 (centres unmarked) [drawing 426],"First mowing, growth height",grass; 3.0 kg/ha,21.0 cm
same,"First mowing, mowings",grass; 3.0 kg/ha,117.7 g
same,"Second mowing, growth height",grass; 3.0 kg/ha,18.5 cm
same,"Second mowing, mowings",grass; 3.0 kg/ha,75.3 g
same,"First mowing, growth height, relative",grass; 3.0 kg/ha,96.3
same,"First mowing, mowings, relative",grass; 3.0 kg/ha,87.7
same,"Second mowing, growth height, relative",grass; 3.0 kg/ha,92.5
same,"Second mowing, mowings, relative",grass; 3.0 kg/ha,83.1
same,"First mowing, growth height",grass; 6.0 kg/ha,18.5 cm
same,"First mowing, mowings",grass; 6.0 kg/ha,114.0 g
same,"Second mowing, growth height",grass; 6.0 kg/ha,17.0 cm
same,"Second mowing, mowings",grass; 6.0 kg/ha,72.1 g
same,"First mowing, growth height, relative",grass; 6.0 kg/ha,84.9
same,"First mowing, mowings, relative",grass; 6.0 kg/ha,84.9
same,"Second mowing, growth height, relative",grass; 6.0 kg/ha,85.0
same,"Second mowing, mowings, relative",grass; 6.0 kg/ha,79.6
